Tested on: CHD
Experiment: Meta-analysis of CARE and WOSCOPS combined, synergy index, CHD endpoint
Assay type: in vivo, human
From the text: Tables 4-5 provide meta-analyses of CARE and WOSCOPS combined (2nd section of each table) for two endpoints (CHD and CVD) and three genetic models (dominant, recessive, and additive), as well as logistic regression analyses of CARE (3rd section of each table) and WOSCOPS (4th section of each table) individually.
Tables 12 and 17 provide results of meta-analysis of the CARE and WOSCOPS sample sets combined by direct genotyping and by imputing genotypes.
“P” indicates the p-value, and “P(R)” (or “P.R.”) indicates the p-value random effect. Both of these are p-values corresponding to a statistical test of whether the combined synergy index is equal to one but use different assumptions to derive the p-value. “P” is calculated using a fixed effects model, and “P(R)” is calculated using a random effects model.
“OR” indicates the odds ratio (synergy index) calculated from a fixed effects model, and “OR(R)” (or “OR.R.”) indicates the odds ratio (synergy index) calculated from a random effects model.

[1] = SNP rs1321432, allele (A1) A, RECESSIVE, Imputed
[2] = SNP rs1321457, allele (A1) G, RECESSIVE, Imputed
[3] = SNP rs1336382, allele (A1) T, DOMINANT, Imputed
[4] = SNP rs1336383, allele (A1) T, DOMINANT, Imputed
[5] = SNP rs1336407, allele (A1) T, DOMINANT, Imputed
[6] = SNP rs1336409, allele (A1) T, DOMINANT, Imputed
[7] = SNP rs1336596, allele (A1) A, DOMINANT, Imputed
[8] = SNP rs1343560, allele (A1) T, ADDITIVE, Imputed
[9] = SNP rs1343560, allele (A1) T, DOMINANT, Imputed
[10] = SNP rs1361987, allele (A1) T, GENOTYPIC, Imputed
[11] = SNP rs12923993, allele (A1) C, DOMINANT, Imputed
[12] = SNP rs12936964, allele (A1) T, DOMINANT, Imputed
[13] = SNP rs12960663, allele (A1) G, ADDITIVE, Imputed
[14] = SNP rs13038146, allele (A1) C, ADDITIVE, Imputed
[15] = SNP rs13038146, allele (A1) C, GENOTYPIC, Imputed
[16] = SNP rs13134222, allele (A1) A, GENOTYPIC, Imputed
[17] = SNP rs13172910, allele (A1) A, DOMINANT, Imputed
[18] = SNP rs13194907, allele (A1) A, ADDITIVE, Imputed
[19] = SNP rs13194907, allele (A1) A, DOMINANT, Imputed
[20] = SNP rs13195745, allele (A1) A, ADDITIVE, Imputed
[21] = SNP rs13195745, allele (A1) A, DOMINANT, Imputed
[22] = SNP rs13265054, allele (A1) T, DOMINANT, Imputed
[23] = SNP rs13282131, allele (A1) C, GENOTYPIC, Imputed
[24] = SNP rs13353526, allele (A1) C, DOMINANT, Imputed
[25] = rs1003148 allele C RECESSIVE Imputed
[26] = rs1008705 allele C DOMINANT Imputed
[27] = rs1149350 allele A DOMINANT Imputed
[28] = rs1150143 allele G DOMINANT Imputed
[29] = rs1204522 allele C GENOTYPIC Imputed
[30] = rs1204524 allele A GENOTYPIC Imputed
[31] = rs1232298 allele G RECESSIVE Imputed
[32] = rs1247340 allele C DOMINANT Imputed
[33] = rs1247341 allele C DOMINANT Imputed
[34] = rs10046799 allele C ADDITIVE Imputed
[35] = rs10046799 allele C GENOTYPIC Imputed
[36] = rs10051148 allele C DOMINANT Imputed
[37] = rs10054055 allele T DOMINANT Imputed

CC[C@H](C)C(=O)O[C@H]1C[C@H](O)C=C2C=C[C@H](C)[C@H](CC[C@@H](O)C[C@@H](O)CC(=O)O)[C@H]21 [Pravastatin, pravastatin]
OR [1]: 2.1221 | OR(R) [1]: 2.1221 | OR [2]: 2.0656 | OR(R) [2]: 2.0656 | OR [3]: 1.6135 | OR(R) [3]: 1.6135 | OR [4]: 1.6135 | OR(R) [4]: 1.6135 | OR [5]: 1.6135 | OR(R) [5]: 1.6135 | OR [6]: 1.6085 | OR(R) [6]: 1.6059 | OR [7]: 0.5951 | OR(R) [7]: 0.5951 | OR [8]: 0.5393 | OR(R) [8]: 0.5393 | OR [9]: 0.5034 | OR(R) [9]: 0.5034 | OR [10]: 0.4404 | OR(R) [10]: 0.4404 | OR [11]: 1.4572 | OR(R) [11]: 1.4572 | OR [12]: 1.6688 | OR(R) [12]: 1.6688 | OR [13]: 0.6241 | OR(R) [13]: 0.6241 | OR [14]: 1.3708 | OR(R) [14]: 1.3708 | OR [15]: 1.9308 | OR(R) [15]: 1.9308 | OR [16]: 0.3011 | OR(R) [16]: 0.3011 | OR [17]: 0.6547 | OR(R) [17]: 0.6547 | OR [18]: 2.303 | OR(R) [18]: 2.303 | OR [19]: 2.505 | OR(R) [19]: 2.505 | OR [20]: 2.303 | OR(R) [20]: 2.303 | OR [21]: 2.505 | OR(R) [21]: 2.505 | OR [22]: 0.6144 | OR(R) [22]: 0.6144 | OR [23]: 1.8412 | OR(R) [23]: 1.8412 | OR [24]: 1.9371 | OR(R) [24]: 1.9371 | Meta-analysis OR (rs1948 allele A vs G (ref)): 1.66 | Meta-analysis OR (rs151806 allele G vs A (ref)): 0.63 | Meta-analysis OR (rs205279 allele A vs G (ref)): 1.81 | Meta-analysis OR (rs238272 allele A vs G (ref)): 1.45 | Meta-analysis OR (rs312929 allele G vs A (ref)): 0.75 | Meta-analysis OR (rs316720 allele G vs A (ref)): 0.71 | Meta-analysis OR (rs331555 allele A vs C (ref)): 0.74 | Meta-analysis OR (rs354342 allele A vs G (ref)): 0.67 | Meta-analysis OR (rs453625, allele A1 A (non-ref), A2 G (ref), endpoint/model not given): 0.62 | Meta-analysis OR (rs610118 allele G vs A (ref)): 0.49 | Meta-analysis OR (rs669684 allele G vs A (ref)): 0.72 | Meta-analysis OR (rs842796 allele A vs G (ref)): 1.59 | Meta-analysis OR (rs886469 allele G vs A (ref)): 0.64 | Meta-analysis OR (rs969356 allele G vs A (ref)): 0.63 | OR [25]: 0.5819 | OR(R) [25]: 0.5829 | OR [26]: 1.4761 | OR(R) [26]: 1.4761 | Meta-analysis OR (rs1035618 allele A vs C (ref)): 1.42 | Meta-analysis OR (rs1076733, allele A1 A (non-ref), A2 G (ref), endpoint/model not given): 0.67 | OR [27]: 1.6713 | OR(R) [27]: 1.6713 | OR [28]: 1.6852 | OR(R) [28]: 1.6852 | Meta-analysis OR (rs1182878, allele A1 A (non-ref), A2 G (ref), endpoint/model not given): 0.78 | OR [29]: 0.4353 | OR(R) [29]: 0.4353 | OR [30]: 0.4351 | OR(R) [30]: 0.4351 | OR [31]: 2.0566 | OR(R) [31]: 2.0955 | OR [32]: 1.6742 | OR(R) [32]: 1.6742 | OR [33]: 1.684 | OR(R) [33]: 1.684 | Meta-analysis OR (rs1343563 allele C vs A (ref)): 0.60 | Meta-analysis OR (rs1349282 allele A vs G (ref)): 0.55 | Meta-analysis OR (rs1382787 allele G vs A (ref)): 1.35 | Meta-analysis OR (rs1474396, allele A1 A (non-ref), A2 C (ref), endpoint/model not given): 1.46 | Meta-analysis OR (rs1615197 allele G vs A (ref)): 1.80 | Meta-analysis OR (rs1884897 allele A vs G (ref)): 2.07 | Meta-analysis OR (rs2008165 allele G vs A (ref)): 0.59 | Meta-analysis OR (rs2023650 allele A vs G (ref)): 0.71 | Meta-analysis OR (rs2060411 allele A vs G (ref)): 1.39 | Meta-analysis OR (rs2104506 allele A vs C (ref)): 0.71 | Meta-analysis OR (rs2129571, allele A1 A (non-ref), A2 G (ref), endpoint/model not given): 0.53 | Meta-analysis OR (rs2145540 allele A vs G (ref)): 0.56 | Meta-analysis OR (rs2268650 allele A vs G (ref)): 0.66 | Meta-analysis OR (rs2273816 allele A vs G (ref)): 1.61 | Meta-analysis OR (rs2290193, allele A1 C (non-ref), A2 A (ref), endpoint/model not given): 0.47 | Meta-analysis OR (rs2376764 allele A vs G (ref)): 0.56 | Meta-analysis OR (rs2418412 allele G vs A (ref)): 1.94 | Meta-analysis OR (rs2483641, allele A1 A (non-ref), A2 G (ref), endpoint/model not given): 0.59 | Meta-analysis OR (rs2534752 allele G vs A (ref)): 1.65 | Meta-analysis OR (rs2626130 allele G vs A (ref)): 1.32 | Meta-analysis OR (rs2695026 allele A vs G (ref)): 0.67 | Meta-analysis OR (rs2793086 allele C vs A (ref)): 0.65 | Meta-analysis OR (rs2941528 allele A vs G (ref)): 0.67 | Meta-analysis OR (rs3000490 allele G vs A (ref)): 1.38 | Meta-analysis OR (rs3213616 allele A vs G (ref)): 0.62 | Meta-analysis OR (rs3732788 allele G vs A (ref)): 0.51 | Meta-analysis OR (rs3798544 allele A vs G (ref)): 1.57 | Meta-analysis OR (rs3998860 allele A vs G (ref)): 0.61 | Meta-analysis OR (rs4289236 allele A vs G (ref)): 1.41 | Meta-analysis OR (rs4611134 allele A vs G (ref)): 1.55 | Meta-analysis OR (rs4643388 allele G vs A (ref)): 1.34 | Meta-analysis OR (rs4682522 allele C vs A (ref)): 0.55 | Meta-analysis OR (rs4830819 allele G vs A (ref)): 0.60 | Meta-analysis OR (rs4869033 allele G vs A (ref)): 0.36 | Meta-analysis OR (rs4924215 allele A vs G (ref)): 1.65 | Meta-analysis OR (rs4986146 allele A vs G (ref)): 0.63 | Meta-analysis OR (rs4993917 allele A vs C (ref)): 0.60 | Meta-analysis OR (rs5017584 allele A vs G (ref)): 1.74 | Meta-analysis OR (rs6075209 allele A vs G (ref)): 0.64 | Meta-analysis OR (rs6080603 allele A vs C (ref)): 0.62 | Meta-analysis OR (rs6491586 allele G vs A (ref)): 1.65 | Meta-analysis OR (rs6505669 allele G vs A (ref)): 1.58 | Meta-analysis OR (rs6911817, allele A1 A (non-ref), A2 G (ref), endpoint/model not given): 2.85 | Meta-analysis OR (rs7094941, allele A1 G (non-ref), A2 A (ref), endpoint/model not given): 0.74 | Meta-analysis OR (rs7179134 allele A vs G (ref)): 3.52 | Meta-analysis OR (rs7193741 allele A vs C (ref)): 2.04 | Meta-analysis OR (rs7327364 allele A vs G (ref)): 0.68 | Meta-analysis OR (rs7497613, allele A1 A (non-ref), A2 G (ref), endpoint/model not given): 0.55 | Meta-analysis OR (rs7616936, allele A1 C (non-ref), A2 A (ref), endpoint/model not given): 1.77 | Meta-analysis OR (rs7705993 allele G vs A (ref)): 1.48 | Meta-analysis OR (rs7767024, allele A1 A (non-ref), A2 G (ref), endpoint/model not given): 1.42 | Meta-analysis OR (rs7910196, allele A1 G (non-ref), A2 A (ref), endpoint/model not given): 1.47 | Meta-analysis OR (rs8051893 allele A vs G (ref)): 0.67 | Meta-analysis OR (rs8109631 allele A vs G (ref)): 1.53 | Meta-analysis OR (rs9375683 allele G vs A (ref)): 1.49 | Meta-analysis OR (rs9436636 allele A vs G (ref)): 1.35 | Meta-analysis OR (rs9446187 allele A vs G (ref)): 1.96 | Meta-analysis OR (rs9658127, allele A1 A (non-ref), A2 G (ref), endpoint/model not given): 2.79 | OR [34]: 0.724 | OR(R) [34]: 0.7134 | OR [35]: 0.5342 | OR(R) [35]: 0.5221 | OR [36]: 0.5783 | OR(R) [36]: 0.5783 | OR [37]: 0.5791 | OR(R) [37]: 0.5791 | OR (rs10067895 allele A DOMINANT Imputed): 0.5759
